Data: patent US9738634B2, “Heterocyclic amide compound and herbicide” (SYNGENTA PARTICIPATIONS AG, priority 2013, dated 2017)

What was measured:
Assay type in all cases: in vivo
Details in all cases: treatment dosage 315 g/ha
Italian ryegrass [1] = experiment: Test Example 3: weedkilling efficacy through soil treatment; I: Italian ryegrass
In short: (§1)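 Crop and weed responses were judged three weeks after a uniform surface spray of the water-diluted emulsion at the given g/ha rate. Seeds sat beneath about 1.5 cm of sterilized diluvial soil, and boxes stood in a greenhouse at 25 to 30° C.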

black-grass [2] = experiment: Test Example 4: weedkilling efficacy by foliar treatment; H: black-grass
In short: (§2)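 Seeds are spot-sown into sterilized diluvial soil and covered with about 1.5 cm of soil. After 14 days' greenhouse growth at 25 to 30° C, plants are sprayed on stems and leaves with diluted emulsion at the stated g/ha rate, then scored at 3 weeks.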

birds-eye speedwell [3] = experiment: Test Example 4: weedkilling efficacy by foliar treatment; p: birds-eye speedwell
In short: as §2

Indian mallow [4] = experiment: Test Example 3: weedkilling efficacy through soil treatment; K: Indian mallow
In short: as §1

black-grass [5] = experiment: Test Example 3: weedkilling efficacy through soil treatment; H: black-grass
In short: as §1

soybean [6] = experiment: Test Example 3: soil treatment, effect on crop; d: soybean
In short: as §1

crabgrass [7] = experiment: Test Example 3: weedkilling efficacy through soil treatment; D: crabgrass
In short: as §1

green foxtail [8] = experiment: Test Example 3: weedkilling efficacy through soil treatment; E: green foxtail
In short: as §1

oval-leafed pondweed [9] = experiment: Test Example 1: weedkilling efficacy, preemergent weed treatment in the submerged state; C: oval-leafed pondweed
In short: (§3)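 Visual scores against set criteria were taken 3 weeks after treatment. Compounds, as diluted emulsions at specified g/ha, went onto the water surface of 4 cm-flooded alluvial soil pots on the day weeds were sown and 2.5-leaf rice was transplanted; greenhouse held 25–30 °C.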

beet [10] = experiment: Test Example 4: foliar treatment, effect on crop; f: beet
In short: as §2

transplanted rice = experiment: Test Example 1: preemergent weed treatment in the submerged state, effect on crop; a: transplanted rice
In short: as §3

wild oat [11] = experiment: Test Example 3: weedkilling efficacy through soil treatment; G: wild oat
In short: as §1

chickweed [12] = experiment: Test Example 4: weedkilling efficacy by foliar treatment; N: chickweed
In short: as §2

wheat [13] = experiment: Test Example 3: soil treatment, effect on crop; e: wheat
In short: as §1

directly sown rice [14] = experiment: Test Example 4: foliar treatment, effect on crop; b: directly sown rice
In short: as §2

green foxtail [15] = experiment: Test Example 4: weedkilling efficacy by foliar treatment; E: green foxtail
In short: as §2

barnyard grass [16] = experiment: Test Example 2: weedkilling efficacy, growth period weed treatment in the submerged state; A: barnyard grass
In short: (§4)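 Barnyard grass, bulrush and oval-leafed pondweed sown in alluvial soil under 4 cm flooding, greenhouse 25 to 30° C. At 1-2 leaf stage, water-diluted emulsion applied to the water surface at stated g/ha dosages; effects scored 3 weeks later.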

wheat [17] = experiment: Test Example 4: foliar treatment, effect on crop; e: wheat
In short: as §2

barnyard grass [18] = experiment: Test Example 4: weedkilling efficacy by foliar treatment; F: barnyard grass
In short: as §2

catchweed = experiment: Test Example 4: weedkilling efficacy by foliar treatment; O: catchweed
In short: as §2

rapeseed [19] = experiment: Test Example 4: foliar treatment, effect on crop; g: rapeseed
In short: as §2

corn [20] = experiment: Test Example 4: foliar treatment, effect on crop; c: corn
In short: as §2

rapeseed [21] = experiment: Test Example 3: soil treatment, effect on crop; g: rapeseed
In short: as §1

beet [22] = experiment: Test Example 3: soil treatment, effect on crop; f: beet
In short: as §1

crabgrass [23] = experiment: Test Example 4: weedkilling efficacy by foliar treatment; D: crabgrass
In short: as §2

redroot pigweed [24] = experiment: Test Example 3: weedkilling efficacy through soil treatment; L: redroot pigweed
In short: as §1

soybean [25] = experiment: Test Example 4: foliar treatment, effect on crop; d: soybean
In short: as §2

birds-eye speedwell [26] = experiment: Test Example 3: weedkilling efficacy through soil treatment; p: birds-eye speedwell
In short: as §1

corn [27] = experiment: Test Example 3: soil treatment, effect on crop; c: corn
In short: as §1

barnyard grass [28] = experiment: Test Example 3: weedkilling efficacy through soil treatment; F: barnyard grass
In short: as §1

redroot pigweed [29] = experiment: Test Example 4: weedkilling efficacy by foliar treatment; L: redroot pigweed
In short: as §2

directly sown rice [30] = experiment: Test Example 3: soil treatment, effect on crop; b: directly sown rice
In short: as §1

barnyard grass [31] = experiment: Test Example 1: weedkilling efficacy, preemergent weed treatment in the submerged state; A: barnyard grass
In short: as §3

common wind-grass [32] = experiment: Test Example 3: weedkilling efficacy through soil treatment; J: common wind-grass
In short: as §1

chickweed [33] = experiment: Test Example 3: weedkilling efficacy through soil treatment; N: chickweed
In short: as §1

Indian mallow [34] = experiment: Test Example 4: weedkilling efficacy by foliar treatment; K: Indian mallow
In short: as §2

Italian ryegrass [35] = experiment: Test Example 4: weedkilling efficacy by foliar treatment; I: Italian ryegrass
In short: as §2

wild oat [36] = experiment: Test Example 4: weedkilling efficacy by foliar treatment; G: wild oat
In short: as §2

common wind-grass [37] = experiment: Test Example 4: weedkilling efficacy by foliar treatment; J: common wind-grass
In short: as §2

oval-leafed pondweed [38] = experiment: Test Example 2: weedkilling efficacy, growth period weed treatment in the submerged state; C: oval-leafed pondweed
In short: as §4

bulrush [39] = experiment: Test Example 1: weedkilling efficacy, preemergent weed treatment in the submerged state; B: bulrush
In short: as §3

bulrush [40] = experiment: Test Example 2: weedkilling efficacy, growth period weed treatment in the submerged state; B: bulrush
In short: as §4

CC1=C(c2ccccc2)C(=O)N(C(C)(C)C(=O)Nc2cccc(C(F)F)n2)CO1 [B-2-55]
I (Italian ryegrass) weedkilling efficacy grade (Italian ryegrass [1]): 5 (weed kill ratio 90% or more, (practically complete withering)) | H (black-grass) weedkilling efficacy grade (black-grass [2]): 5 (weed kill ratio 90% or more, (practically complete withering)) | P (birds-eye speedwell) weedkilling efficacy grade (birds-eye speedwell [3]): 5 (weed kill ratio 90% or more, (practically complete withering)) | K (Indian mallow) weedkilling efficacy grade (Indian mallow [4]): 1 (weed kill ratio 5% or more, less than 20%) | H (black-grass) weedkilling efficacy grade (black-grass [5]): 5 (weed kill ratio 90% or more, (practically complete withering)) | d (soybean) effect on crop grade (soybean [6]): 3 (weed kill ratio 40% or more, less than 70%) | D (crabgrass) weedkilling efficacy grade (crabgrass [7]): 5 (weed kill ratio 90% or more, (practically complete withering)) | E (green foxtail) weedkilling efficacy grade (green foxtail [8]): 5 (weed kill ratio 90% or more, (practically complete withering)) | C (oval-leafed pondweed) weedkilling efficacy grade (oval-leafed pondweed [9]): 5 (weed kill ratio 90% or more, (practically complete withering)) | f (beet) effect on crop grade (beet [10]): 4 (weed kill ratio 70% or more, less than 90%) | a (transplanted rice) effect on crop grade (transplanted rice): 3 (weed kill ratio 40% or more, less than 70%) | G (wild oat) weedkilling efficacy grade (wild oat [11]): 4 (weed kill ratio 70% or more, less than 90%) | N (chickweed) weedkilling efficacy grade (chickweed [12]): 4 (weed kill ratio 70% or more, less than 90%) | e (wheat) effect on crop grade (wheat [13]): 0 (weed kill ratio 5% or less (practically no effect)) | b (directly sown rice) effect on crop grade (directly sown rice [14]): 5 (weed kill ratio 90% or more, (practically complete withering)) | E (green foxtail) weedkilling efficacy grade (green foxtail [15]): 5 (weed kill ratio 90% or more, (practically complete withering)) | A (barnyard grass) weedkilling efficacy grade (barnyard grass [16]): 5 (weed kill ratio 90% or more, (practically complete withering)) | e (wheat) effect on crop grade (wheat [17]): 2 (weed kill ratio 20% or more, less than 40%) | F (barnyard grass) weedkilling efficacy grade (barnyard grass [18]): 5 (weed kill ratio 90% or more, (practically complete withering)) | O (catchweed) weedkilling efficacy grade (catchweed): 5 (weed kill ratio 90% or more, (practically complete withering)) | g (rapeseed) effect on crop grade (rapeseed [19]): 4 (weed kill ratio 70% or more, less than 90%) | c (corn) effect on crop grade (corn [20]): 4 (weed kill ratio 70% or more, less than 90%) | g (rapeseed) effect on crop grade (rapeseed [21]): 2 (weed kill ratio 20% or more, less than 40%) | f (beet) effect on crop grade (beet [22]): 3 (weed kill ratio 40% or more, less than 70%) | D (crabgrass) weedkilling efficacy grade (crabgrass [23]): 5 (weed kill ratio 90% or more, (practically complete withering)) | L (redroot pigweed) weedkilling efficacy grade (redroot pigweed [24]): 4 (weed kill ratio 70% or more, less than 90%) | d (soybean) effect on crop grade (soybean [25]): 4 (weed kill ratio 70% or more, less than 90%) | P (birds-eye speedwell) weedkilling efficacy grade (birds-eye speedwell [26]): 5 (weed kill ratio 90% or more, (practically complete withering)) | c (corn) effect on crop grade (corn [27]): 0 (weed kill ratio 5% or less (practically no effect)) | F (barnyard grass) weedkilling efficacy grade (barnyard grass [28]): 5 (weed kill ratio 90% or more, (practically complete withering)) | L (redroot pigweed) weedkilling efficacy grade (redroot pigweed [29]): 4 (weed kill ratio 70% or more, less than 90%) | b (directly sown rice) effect on crop grade (directly sown rice [30]): 4 (weed kill ratio 70% or more, less than 90%) | A (barnyard grass) weedkilling efficacy grade (barnyard grass [31]): 5 (weed kill ratio 90% or more, (practically complete withering)) | J (common wind-grass) weedkilling efficacy grade (common wind-grass [32]): 5 (weed kill ratio 90% or more, (practically complete withering)) | N (chickweed) weedkilling efficacy grade (chickweed [33]): 4 (weed kill ratio 70% or more, less than 90%) | K (Indian mallow) weedkilling efficacy grade (Indian mallow [34]): 4 (weed kill ratio 70% or more, less than 90%) | I (Italian ryegrass) weedkilling efficacy grade (Italian ryegrass [35]): 4 (weed kill ratio 70% or more, less than 90%) | G (wild oat) weedkilling efficacy grade (wild oat [36]): 3 (weed kill ratio 40% or more, less than 70%) | J (common wind-grass) weedkilling efficacy grade (common wind-grass [37]): 5 (weed kill ratio 90% or more, (practically complete withering)) | C (oval-leafed pondweed) weedkilling efficacy grade (oval-leafed pondweed [38]): 5 (weed kill ratio 90% or more, (practically complete withering)) | B (bulrush) weedkilling efficacy grade (bulrush [39]): 5 (weed kill ratio 90% or more, (practically complete withering)) | B (bulrush) weedkilling efficacy grade (bulrush [40]): 5 (weed kill ratio 90% or more, (practically complete withering))
